Results on eleven molecules are retold here after patent US5994629A, “Positive selection” (priority 1991, dated 1999).

Each structure is given as a SMILES string. Converted amounts (≈) assume the structure as drawn. Counter-ions that a name gives are not always drawn. Bounds are passed on as bounds.

The term solubility denotes how much of the substance goes into solution per volume.

Series [1] deals with explants with the mannose 6-phosphate isomerase gene from E. coli. Description: Regenerated shoots selected by compounds in addition to mannose, M-6-P-isomerase. The series is classed as cell-based. As to conditions: genotype M-6-P-isomerase.
Series [2] relates to Wild type explants. Description: Regenerated shoots selected by compounds in addition to mannose, wild type. The series is classed as cell-based. The conditions noted are these: genotype Wild type.
Series [3] can be described thus: Solubility. The series is classed as physicochemical. As to conditions: for solubility: organic solvent or mixture.
Series [4] deals with leaf discs of tobacco without (GUS-) introduced β-glucuronidase genes. Format: cell-based, Nicotiana tabacum 'Wisconsin 38'. As to conditions: test compounds at several concentrations up to 250 μM in MSO.
Series [5] deals with β-glucuronidase from E. coli (Escherichia coli, UniProt P05804). In words: Hydrolysis by β-glucuronidase (GUS), HPLC/TLC. The series is classed as biochemical. The conditions noted are these: for Hydrolysis by β-glucuronidase (GUS), result in words: 50 mM sodium phosphate buffer pH 7.0, 37° C., HPLC/TLC. As to the method: […] […] This confirms the identity of the product as a conjugate of BA and β-D-glucuronic acid.
[…] The presence of hydrolysis products is then determined using HPLC and TLC.

For series [6], the system named is leaf discs of tobacco with (GUS+) introduced β-glucuronidase genes. Format: cell-based, Nicotiana tabacum 'Wisconsin 38'. As to conditions: test compounds at several concentrations up to 250 μM in MSO.
Series [7] deals with T1, GUS activity in plant tissue (Escherichia coli, UniProt P05804).
T1 construct: from tissue; host or cells: leaves of a number of plant species
In words: Histological GUS reaction (X-gluc) in plant species with saccharo 1,4-lactone. Further: key: + Blue reaction; (+) Low frequency of GUS activity (faint blue reaction); 0 No reaction; n Not determined. The series is classed as cell-based. As to conditions: saccharo 1,4-lactone 10 mM, pH 3-8, transgenic (1), GUS gene from E. coli.

In series [8] the test system is GUS activity in plant tissue. The series is described as above. The series is classed as cell-based. As to conditions: saccharo 1,4-lactone 10 mM, pH 3-8.
Series [9] in a line: Chemical stability.
Series [10] concerns sugar beet cotyledon explants. In words: Transformation of sugar beet, positive and negative selection. Format: cell-based. As to conditions: 400 mg/l kanamycin sulphate + 1 mg/l BAP (100 explants) or + 15 mg/l BA3GN (177 explants). An excerpt: Seeds were germinated for 4 days in darkness on a substrate containing 0.7 g/l of agarose and 2 g/l of sucrose. The seedlings were then transferred to a Nunc container containing 1/2×MSO substrate and cultured for 3 days in the light. The cotyledons were removed from the seedlings, and the cotyledon explants were then brushed on the petiole with a small brush containing an Agrobacterium suspension, the Agrobacterium containing 35S-NPTII and 35S-GUS (OD 660=0.1). The cotelydons were then co-cultivatedfor 4 days on a substrate containing 1/10 MSO substrate and 200 μM acetosyringone. […] The regenerated shoots were then transferred to containers containing the same substrate. After 52 days on this substrate all the shoots were transferred to MSO substrate supplemented with 800 mg/l carbenicillin, 25 mg/l vancomycin and 0.1 mg/l BA. After 14 days GUS assays as described in Example 3 were performed on the selected plant material.

The subject of series [11] is hypocotyl explants of oilseed rape. Description: Transgenic callus from oilseed rape, second section of Table 19. The series is classed as cell-based. As for the experimental part: (§1) Experiments were performed as described in Example 11, although with certain modifications. The plant species used were the very recalcitrant breeding lines "V486" of winter oil seed rape and "S487" of summer oilseed rape. Seeds were sterilized and germinated as described in Example 16. Hypocotyls were used as explants and were inoculated and co-cultured as described in Example 11. After co-cultivation the explants were transferred to MSO substrate containing 0.1 mg/l naphthylacetic acid, 0.01 mg/l gibberellic acid (GA3), 500 mg/l carbenicillin, 50 mg/l kanamycin sulphate and 6.0 g/l agarose. The substrate contained in addition either 1 mg/l BA or 3.75, 7.5 or 15.0 mg/l BA3GN sodium salt. The pH was adjusted to 5.8. The Agrobacterium used contained in its T-DNA a GUS gene and a neomycinphosphotransferase II gene driven by 35S promoters. GUS assays were performed after 8 weeks and callus showing an intense blue staining in most of the callus cells was registered as being GUS.

Series [12] concerns hypocotyl explants of winter oil seed rape V486. In words: Transgenic callus from oilseed rape, winter type V486. The series is classed as cell-based. The conditions noted are these: 50 mg/l kanamycin sulphate. As for the experimental part: as §1
Series [13] concerns tobacco leaf disc containing an introduced β-glucuronidase gene. Description: Shoot regeneration with sterol glucuronides on tridemorph substrate. As to conditions: sitosteryl glucuronide 12.5 mg/l and/or cholesteryl glucuronide 50 mg/l; tridemorph 0.1 mM and BA3GN sodium salt (5 mM); 30 days. Format: cell-based.

Chain of β-glucuronidase from E. coli (P05804 whole entry, looked up): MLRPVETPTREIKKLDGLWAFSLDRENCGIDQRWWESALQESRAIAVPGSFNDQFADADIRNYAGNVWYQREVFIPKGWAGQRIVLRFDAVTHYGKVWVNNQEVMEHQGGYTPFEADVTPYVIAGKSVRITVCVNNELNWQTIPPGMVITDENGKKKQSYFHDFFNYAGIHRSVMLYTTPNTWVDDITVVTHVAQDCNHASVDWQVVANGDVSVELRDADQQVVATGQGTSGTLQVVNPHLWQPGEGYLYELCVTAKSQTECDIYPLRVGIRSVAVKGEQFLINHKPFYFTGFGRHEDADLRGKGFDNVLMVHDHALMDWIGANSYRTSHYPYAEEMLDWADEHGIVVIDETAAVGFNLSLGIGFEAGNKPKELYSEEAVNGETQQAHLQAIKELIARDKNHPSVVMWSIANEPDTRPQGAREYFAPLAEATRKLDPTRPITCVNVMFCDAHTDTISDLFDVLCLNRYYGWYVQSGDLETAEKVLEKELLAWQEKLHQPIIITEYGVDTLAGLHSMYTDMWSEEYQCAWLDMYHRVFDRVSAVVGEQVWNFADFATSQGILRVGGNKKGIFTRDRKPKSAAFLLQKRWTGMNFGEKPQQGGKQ
T1 sequence (P05804 whole entry): as the sequence (P05804 whole entry, looked up) above

For `N[C@@H]1C(O)O[C@H](CO)[C@@H](O)[C@@H]1O` (stereo partly drawn) [D-mannosamine], the “Number of regenerated shoots per explant” value in [1] was found to be 0.8; in series [2], 0.

As for `CC(C)=CCNc1nc(S[C@@H]2O[C@H](C(=O)O)[C@@H](O)[C@H](O)[C@H]2O)nc2[nH]cnc12` [IP2SGN sodium salt, 6-(3-methyl-but-2-enylamino)purine-2-yl-1-thio-β-D-glucopyranuronic acid, sodium salt], the solubility in words result in series [3] (50% aqueous alcohol) is listed as “sparingly soluble”. Also, the “Shoot formation, GUS-” value in [4] is reported as “+ ("+" means shoot formation at concentrations below 250 μM)”. Further, the “partial removal of the glucuronide by GUS” value in series [5] (2500 Fishman units, 48 hours, 37° C., HPLC) was determined as 65%. Besides, the “Shoot formation, GUS+” value in series [6] is given as “+ ("+" means shoot formation at concentrations below 250 μM)”.

For the molecule `O=C(O)C=Cc1ccccc1O[C@@H]1O[C@H](C(=O)O)[C@@H](O)[C@H](O)[C@H]1O` [CouGN, 2-hydroxycinnamyl-β-D-glucopyranuronic acid], in [3] (aqueous buffer and 50% alcohol, aqueous buffer, pH 7, and 50% aqueous alcohol), the solubility was found to be 5000 µg/mL (≈ 14.7 mM). Moreover, the “conversion to o-coumaric acid by GUS” value in series [5] (5 mg in 1 ml, 1000 units Sigma Type G5897, 12 hours, 37° C., TLC) is 93.4%.

For the molecule `O=C(O)[C@@H](O)[C@H]1OC(=O)[C@H](O)[C@H]1O` [Saccharo 1,4-lactone], the “Histological GUS reaction” value in [7] (Sugar beet) is given as “(+)”; in series [7] (Tobacco) it was 0; in series [8] (Oilseed rape) it was 0; in series [8] (Oxalis, stem or petiole), 0; in series [8] (Pea, stem or petiole) it was 0; in [8] (Rhubarb, stem or petiole), 0. Further, the “Histological GUS reaction” value in series [8] (Sitka spruce, embryogenic callus) is on record as 0; in series [8] (Sugar beet, transgenic (2), NPT only), 0; in series [8] (Sugar beet, wild type) it was 0; in [8] (Tobacco) it was 0; in [8] (Tobacco, transgenic (2), NPT only) it was 0; in series [8] (Wheat, albino), 0. The “stability at the pH of the substrate” value in series [9] (equilibrium with saccharic acid) is recorded as “not a stable compound”.

On to `O=C([O-])[C@H]1O[C@@H](n2cnc3c(NCc4ccccc4)ncnc32)[C@H](O)[C@@H](O)[C@@H]1O.[Na+]` [BA9GN sodium salt, 9-β-D-glucopyranuronosyl-6-benzylaminopurine, sodium salt], for which, in series [9] (1 mg/ml, 1M hydrochloric acid at 100° C. overnight, TLC), the acid hydrolysis result is reported as “acid-labile”. In addition, the “Shoot formation, GUS-” value in series [4] was “- ("-" means no shoot formation at concentrations below 250 μM)”. In addition, the “Hydrolysis by β-glucuronidase (GUS), result in words” value in series [5] was “no detectable production of BA”. Besides, the “production of BA after incubation with β-glucuronidase” value in series [5] (18 hours at 37° C.) is reported as under 1%. In addition, the “Shoot formation, GUS+” value in series [6] is “- ("-" means no shoot formation at concentrations below 250 μM)”.

For `O=C([O-])[C@H]1O[C@@H](n2cnc(NCc3ccccc3)c3ncnc2-3)[C@H](O)[C@@H](O)[C@@H]1O.[Na+]`, the “Shoot formation, GUS-” value in series [4] is on record as “+ ("+" means shoot formation at concentrations below 250 μM)”. Also, the “Hydrolysis by β-glucuronidase (GUS), result in words” value in [5] was “virtually complete removal”. Besides, the “removal of the glucuronide by GUS” value in series [5] (2500 Fishman units, 12 hours, 37° C., HPLC and TLC) is given as over 99%. Moreover, the “GUS+ Shoots” value in [10] is on record as 4. Further, the “GUS+ shoots (%)” value in [10] amounted to 2.3%. Further, the “GUS+ callus per callus” value in series [11] (BA3GN 3.75 mg/l) turned out to be 33.3%; in series [11] (BA3GN 7.5 mg/l), 25.0%; in series [11] (BA3GN 15.00 mg/l) it was 14.2%; in series [12] (BA3GN 3.75 mg/l), 7.1%; in series [12] (BA3GN 7.5 mg/l), 5.9%; in series [12] (BA3GN 15.00 mg/l) it was 7.5%. In addition, the “GUS+ callus per explant” value in [11] (BA3GN 3.75 mg/l) was 1.7%; in series [11] (BA3GN 7.5 mg/l), 2.3%; in series [11] (BA3GN 15.00 mg/l), 0.9%; in series [12] (BA3GN 3.75 mg/l), 1.4%; in [12] (BA3GN 7.5 mg/l), 1.4%; in series [12] (BA3GN 15.00 mg/l), 2.3%. In addition, the Explants with callus turned out to be 5.2% in [11] (BA3GN 3.75 mg/l, 50 mg/l kanamycin sulphate); 9.2% in series [11] (BA3GN 7.5 mg/l); 6.3% in [11] (BA3GN 15.00 mg/l); 19.0% in series [12] (BA3GN 3.75 mg/l, 8 weeks); 23.0% in series [12] (BA3GN 7.5 mg/l); 30.6% in series [12] (BA3GN 15.00 mg/l). For the same molecule, the “Shoot formation, GUS+” value in [6] is on record as “+ ("+" means shoot formation at concentrations below 250 μM)”.

As for `CC(C)CCC[C@@H](C)[C@H]1CC[C@H]2[C@@H]3CC=C4C[C@@H](O[C@@H]5O[C@H](C(=O)O)[C@@H](O)[C@H](O)[C@H]5O)CC[C@]4(C)[C@H]3CC[C@]12C` [Choesteryl-β-D-glucuronide, cholesteryl-β-D-glucuronide], the “Shoots per leaf disc” value in series [13] stood at 0.3.

Turning to `c1ccc(CNc2ncnc3nc[nH]c23)cc1` [BA, N^6 -benzyladenine], the “Shoot formation, GUS-” value in series [4] is “+ ("+" means shoot formation at concentrations below 250 μM)”. In addition, in [10], the “GUS+ Shoots” value was 0 and the “GUS+ shoots (%)” value amounted to 0%. In addition, in series [11] (BA 1 mg/l), the Explants with callus is given as 0%, the “GUS+ callus per callus” value came to 0% and the “GUS+ callus per explant” value amounted to 0%. Further, in series [12] (BA 1 mg/l), the Explants with callus came out at 0%, the “GUS+ callus per callus” value came out at 0% and the “GUS+ callus per explant” value is given as 0%. Further, in [6], the “Shoot formation, GUS+” value was “+ ("+" means shoot formation at concentrations below 250 μM)”.

With `O=P(O)(O)OC[C@H]1OC(O)[C@@H](O)[C@@H](O)[C@@H]1O` (stereo partly drawn) [D-mannose-6-phosphate], the “Number of regenerated shoots per explant” value in [1] is 0.7; in series [2], 0.

Take `CC[C@H](CC[C@@H](C)[C@H]1CC[C@H]2[C@@H]3CC=C4C[C@@H](O[C@@H]5O[C@H](C(=O)O)[C@@H](O)[C@H](O)[C@H]5O)CC[C@]4(C)[C@H]3CC[C@]12C)C(C)C` [Sitosteryl-β-D-glucuronide, β-sitosteryl-β-D-glucuronidide]: in series [13], the “Shoots per leaf disc” value is on record as 2.8.

As for `NC(=O)[C@H]1O[C@@H](n2cnc(NCc3ccccc3)c3ncnc2-3)[C@H](O)[C@@H](O)[C@@H]1O` [BA3GNamide, 3-β-D-glucupyranuronamido-6-benzylaminopurine], the solubility in series [3] (50% aqueous methanol containing 25% acetic acid) was 2400 µg/mL (≈ 5.99 mM). Further, in series [3] (water or alcohol), the solubility in words result was “only sparingly soluble”. The “Shoot formation, GUS-” value in series [4] is reported as “+ ("+" means shoot formation at concentrations below 250 μM)”. Moreover, the “Shoot formation, GUS+” value in series [6] is listed as “+ ("+" means shoot formation at concentrations below 250 μM)”.
